Data taken from patent US6881421B1 (Bioalliance Pharma S.A., priority 1998, dated 2005).
Converted amounts (≈) assume the structure as drawn.

Key:
[1] = Titration of progesterone/steroid content of nanoparticles by HPLC; format: physicochemical; settings: for Drug load: average of 3 values; for Increase in content load (number of times): PIBCA/HP CD particles versus PIBCA without HP CD; for Content of combined PIBCA and HP CD particles / Content of PIBCA nanoparticles without HP CD: average of three preparations; for Content of PIBCA nanoparticles without HP CD: reference particles
Procedure: (§1) The different suspensions of nanoparticles were centrifuged at 82,000 g for 30 to 40 min at 25° C. (Beckman, L5-65 Ultracentrifuge, 70.1 Ti type rotor) and resuspended in 5 ml distilled water. The suspensions were finally freeze-dried (Christ HED Freeze Drier, Germany).
To titrate the progesterone content in the nanoparticles, the freeze-dried products were diluted in acetonitrile of HPLC grade and the solutions analyzed by high performance liquid chromatography (HPLC). The HPLC system consisted of a 510 solvent delivery unit (Waters-Saint-Quentin-en-Yvelines, France), a WISP 712 automatic sampler, a column Nova-Pak C18 4 μm column (250×4.6 mm), a 486 absorbency detector which operated at 245 NM and interfaced with a 746 data module. The flow rate was 1.0 ml/min and the mobile phase made up of water and acetonitrile (40:60) for which the retention time was approximately 12 min. The results were expressed as an average of three titrations.
The different steroids were determined as in Example 6 so that the titration of these different substances was conducted under the same analytical conditions.

[2] = Titration of cyclodextrin content of nanoparticles (phenolphthalein spectrophotometry); format: physicochemical
Procedure: as §1
For quantification of HPβCD, the freeze-dried nanoparticles were hydrolyzed with 0.2 M NaOH for 12 hours, the pH adjusted to 7.0 (±0.5) and the HPBCD quantified by spectrophotometric titration of the discoloring of phenolphthalein solutions in the presence of HPβCD. Phenolphthalein formed stable, colorless inclusion complexes with cyclodextrins (CD). Consequently, the color intensity of a phenolphthalein solution in alkaline borate buffer decreased in proportion to the quantity of CD in solution.
Reference solutions were prepared by diluting mother solutions of CD in alkaline borate buffer solution with pH 10.0 containing 2% ethanol solution of 0.006 M phenolphthalein. The reference curves (λ=550 nm) are linear for CD concentrations ranging from 1 to 100 μg/ml. To the samples were added 4 parts buffer solution containing phenolphthalein and they were then tested directly.
The HPβCD was also titrated as in Example 6.

[3] = In vitro release of HPβCD from PIBCA/HPβCD nanoparticles; format: physicochemical; settings: ABB medium, 37° C.; during the first hour
Procedure: Study of the release of HPBCD was conducted as for progesterone in ABB medium with quantification of the CD content after ultracentrifuging, by complexation with phenolphthalein as described above. The CD concentration at 100% release was approximately 100 μg/ml.

[4] = Solubility of progesterone; format: physicochemical; settings: polymerization medium, aqueous with cosolvent or surfactant or cyclodextrin; diluted hydrochloric acid (pH 2.0), 1% (w/v) poloxamer 188; read-out: maximum solubility in the polymerization medium
[5] = In vitro release of progesterone from PIBCA/HPβCD nanoparticles; format: physicochemical; settings: for progesterone released, second slower phase / progesterone released, initial rapid release: ABB pH 8.4, 37° C.; for progesterone released, initial rapid release: first hour; for progesterone released: ABB with 40% PEG 400
Procedure: A weighed quantity of freeze-dried nanoparticles (containing 1% (w/v) of glucose) was placed in a bottle containing 15 ml of alkaline borate buffer solution (ABB) (pH 8.4) or of ABB containing esterases (25 and 100 IU) or of ABB/poly(ethyleneglycol) 400 (PEG) at 20 and 40% (v/v). The samples were magnetically stirred at 200 r/min and 37° C., and taken at predetermined intervals. The suspensions were centrifuged at 82,000 g for 30 minutes at 20° C., then the progesterone content of the supernatant is determined for all media and the HPβCD content for the PEG media. The progesterone content is determined using HPLC as described above with injection of 100 μl for the samples incubated in ABB media and 20 μl for the PEG media.
All the tests are conducted under conditions such 15 that the active ingredient concentration during the release stage is maintained below 10% saturation.

[6] = cited from earlier work
[7] = PIBCA nanoparticles without HPβCD
[8] = PIBCA/HPBCD nanoparticles (10 mg/ml HPβCD)

Row | Structure (SMILES) | Drug load [1, 7] [mg/g] | Increase in content load (number of times) [1] | Drug load [1, 8] [mg/g] | Content of combined PIBCA and HP CD particles [1] [mmol/g] | Content of PIBCA nanoparticles without HP CD [1] [mmol/g] | also measured
1 | C#C[C@]1(O)CC[C@H]2[C@@H]3CCC4=Cc5oncc5C[C@]4(C)[C@H]3CC[C@@]21C [Danazol, danazol] | 0.34 | 32.9 number of times | 11.2 | 33.19 | 1.01 | –
2 | CC(O)COC[C@H]1O[C@@H]2O[C@H]3[C@H](O)[C@@H](O)[C@@H](O[C@H]4[C@H](O)[C@@H](O)[C@@H](O[C@H]5[C@H](O)[C@@H](O)[C@@H](O[C@H]6[C@H](O)[C@@H](O)[C@@H](O[C@H]7[C@H](O)[C@@H](O)[C@@H](O[C@H]8[C@H](O)[C@@H](O)[C@@H](O[C@H]1[C@H](O)[C@H]2O)O[C@@H]8COCC(C)O)O[C@@H]7COCC(C)O)O[C@@H]6COCC(C)O)O[C@@H]5COCC(C)O)O[C@@H]4COCC(C)O)O[C@@H]3COCC(C)O (stereo partly drawn) [HPβCD, 2-hydroxypropyl-β-cyclodextrin] | – | – | – | – | – | quantity of HPβCD associated with the particles ([2]; equal initial masses of HPβCD and isobutylcyanoacrylate in the polymerization medium): approximately 35%; quantity of HPβCD associated with the particles ([2]; maximum reached with increasing HPβCD (FIG. 3)): about 60 % of particle weight; cyclodextrin released [3]: ~100%
3 | C[C@]12CCC(=O)C=C1CC[C@@H]1[C@@H]2[C@@H](O)C[C@@]2(C)[C@H]1CC[C@]2(O)C(=O)CO [Hydrocortisone, hydrocortisone] | 2.19 | 7.0 number of times | 15.3 | 42.21 | 6.04 | –
4 | CC(=O)O[C@]1(C(C)=O)CC[C@H]2[C@@H]3C=C(C)C4=CC(=O)CC[C@]4(C)[C@H]3CC[C@@]21C [Megestrolacetate, megestrol acetate] | 0.25 | 5.6 number of times | 1.4 | 3.64 | 0.65 | –
5 | C[C@]12C=CC(=O)C=C1CC[C@@H]1[C@@H]2[C@@H](O)C[C@@]2(C)[C@H]1CC[C@]2(O)C(=O)CO [Prednisolone, prednisolone] | 0.12 | 129.2 number of times | 15.5 | 43.00 | 0.33 | Increase in content load (number of times) ([1]; listed as prednisolone): 129 number of times
6 | CC(=O)[C@H]1CC[C@H]2[C@@H]3CCC4=CC(=O)CC[C@]4(C)[C@H]3CC[C@]12C [Progesterone, progesterone] | 0.79 | 27.7 number of times | 24.0 | 69.60 | 2.51 | solubility [4]: ~60 µg/mL (≈ 191 µM); progesterone content ([1]; larger particles (170 nm)): 10.5 µg/mg; progesterone content of particles ([1]; prepared in the presence of HPβCD, highest content (FIG. 5)): 45 μg/mg of particles; active ingredient content ([1]; smallest nanoparticles (70 nm)): 24 µg/mg; progesterone released, second slower phase ([5]; 70 nm nanoparticles): ~62%; progesterone released, initial rapid release ([5]; 70 nm nanoparticles): ~34%; progesterone released, second slower phase ([5]; 150 nm nanoparticles): approximately 35%; progesterone released, initial rapid release ([5]; 150 nm nanoparticles): approximately 10%; progesterone released ([5]; first-named formulation (150 nm)): approximately 75%; progesterone released ([5]; second-named formulation (70 nm)): ~82%; quantity of released progesterone ([5]; ABB with esterases (25 and 100 IU), both tested formulations): ~100%; water-solubility [6]: 10 µg/mL
7 | CC(=O)S[C@@H]1CC2=CC(=O)CC[C@]2(C)[C@H]2CC[C@@]3(C)[C@@H](CC[C@@]34CCC(=O)O4)[C@H]12 [Spironolactone, spironolactone] | 7.65 | 6.9 number of times | 53.0 | 127.23 | 18.36 | –
8 | C[C@]12CC[C@H]3[C@@H](CCC4=CC(=O)CC[C@@]43C)[C@@H]1CC[C@@H]2O [Testosterone, testosterone] | 2.27 | 8.6 number of times | 19.5 | 67.6 | 7.87 | –
